Key:
B-RAF V600E = biological target: T1, B-RAF V600E (Homo sapiens, UniProt P15056, V600E); test: Target protein degradation, assay C: T-Rex 293 cells, HA-BRAF_V600E, 384 well format; format: cell-based; conditions: T-Rex 293 HA-BRAF_V600E cells, 24 hours, Examples 83-269; for DC50: Assay C; for Dmax: T-REx-293, Assay C
T1 construct: expressed in transfected cells; host or cells: T-Rex 293 cells (Invitrogen #R71007)
Procedure, shortened: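 After 24 h exposure to an 11-point 1:3 series (300 nM–5 pM, 0.5% DMSO), fixed T-Rex 293 cells carrying HA-BRAF V600E (induced with 1 ng/mL doxycycline) were stained anti-HA and imaged. DC50 and Dmax were derived from BRAF intensity relative to control, and cytotoxicity from nuclear counts.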

B-RAF G466V = biological target: T2, B-RAF G466V (Homo sapiens, UniProt P15056, G466V); test: Target protein degradation, assay D: T-Rex 293 cells, HA-BRAF_G466V, 384 well format; format: cell-based; conditions: T-Rex 293 HA-BRAF_G466V cells, 24 hours, Examples 83-269; for Dmax: T-REx-293, Assay D
T2 construct: expressed in transfected cells; host or cells: T-Rex 293 cells (Invitrogen #R71007)
T2 sequence (P15056 whole entry G466V): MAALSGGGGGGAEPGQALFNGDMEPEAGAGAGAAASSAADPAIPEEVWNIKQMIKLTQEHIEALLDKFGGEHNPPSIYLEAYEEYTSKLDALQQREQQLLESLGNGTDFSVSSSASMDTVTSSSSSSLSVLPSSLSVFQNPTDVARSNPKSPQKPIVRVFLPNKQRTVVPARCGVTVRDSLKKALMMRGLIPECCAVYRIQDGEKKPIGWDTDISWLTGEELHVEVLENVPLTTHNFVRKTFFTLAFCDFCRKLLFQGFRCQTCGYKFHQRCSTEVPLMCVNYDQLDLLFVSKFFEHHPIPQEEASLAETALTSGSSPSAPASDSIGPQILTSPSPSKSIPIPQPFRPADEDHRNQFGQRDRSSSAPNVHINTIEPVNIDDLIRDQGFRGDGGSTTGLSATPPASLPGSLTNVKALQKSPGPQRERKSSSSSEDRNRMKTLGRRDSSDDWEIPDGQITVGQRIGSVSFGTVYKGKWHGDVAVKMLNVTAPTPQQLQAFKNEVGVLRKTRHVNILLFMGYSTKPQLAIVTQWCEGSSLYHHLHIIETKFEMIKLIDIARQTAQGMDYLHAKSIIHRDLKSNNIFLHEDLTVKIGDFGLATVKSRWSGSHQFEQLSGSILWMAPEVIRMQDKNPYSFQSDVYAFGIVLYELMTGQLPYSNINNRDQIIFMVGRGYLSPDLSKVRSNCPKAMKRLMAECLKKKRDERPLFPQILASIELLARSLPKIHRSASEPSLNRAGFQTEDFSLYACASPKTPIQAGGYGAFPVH
Procedure, shortened: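 Degradation measured by high-content imaging of anti-HA immunofluorescence in fixed T-Rex 293 cells carrying inducible HA-BRAF G466V (1 ng/mL doxycycline), after 24 h PROTAC exposure at 37 °C over 300 nM–5 pM (1:3, 11 points, 0.5% DMSO). Outputs DC50 and Dmax as % of control; nuclei counts against DMSO wells gauge toxicity.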

T1 sequence (P15056 whole entry V600E): as the sequence (P15056 whole entry G466V) above, with V466G, V600E counted along it

Row | Structure (SMILES) | DC50 (B-RAF V600E) | B-RAF G466V DMax (%) (B-RAF G466V; Assay D) | DC50 (B-RAF G466V; Assay D) | Dmax (B-RAF V600E) | Dmax (B-RAF G466V)
1 | N#Cc1c(NS(=O)(=O)N2CC[C@@H](F)C2)ccc(F)c1Oc1ccc2ncn(-c3ccc(N4CCN(C(=O)C5CCN(c6ccc7c(c6)CN(C6CCC(=O)NC6=O)C7=O)CC5)CC4)cc3)c(=O)c2c1 (single isomer, unassigned) [Example 242, (3R)-N-{2-cyano-3-[(3-(4-[4-(1-{2-[(3R*)-2,6-dioxopiperidin-3-yl]-1-oxo-2,3-dihydro-1H-isoindol-5-yl}piperidine-4-carbonyl)piperazin-1-yl]phenyl}-4-oxo-3,4-dihydroquinazolin-6-yl)oxy]-4-fluorophenyl}-3-fluoropyrrolidine-1-sulfonamide] | > 500 nM | C (C ≤ 35) | 10 to 30 nM |  | 
2 | N#Cc1c(NS(=O)(=O)N2CC[C@@H](F)C2)ccc(F)c1Oc1ccc2ncn(-c3ccc(N4CCC5(CCN(CC6CCN(c7ccc8c(c7)CN([C@H]7CCC(=O)NC7=O)C8=O)CC6)CC5)CC4)cc3)c(=O)c2c1 [Example 200, (3R)-N-(2-cyano-3-{[3-(4-{9-[(1-{2-[(3S)-2,6-dioxopiperidin-3-yl]-1-oxo-2,3-dihydro-1H-isoindol-5-yl}piperidin-4-yl)methyl]-3,9-diazaspiro[5.5]undecan-3-yl}phenyl)-4-oxo-3,4-dihydroquinazolin-6-yl]oxy}-4-fluorophenyl)-3-fluoropyrrolidine-1-sulfonamide] | 50 to 500 nM |  | 1 to 10 nM | 35 to 70% | 35 to 70%
3 | Cn1c(=O)n(C2CCC(=O)NC2=O)c2cccc(N3CC4(CC(CN5CCN(c6ccc(-n7cnc8ccc(Oc9c(F)ccc(NS(=O)(=O)N%10CC[C@@H](F)C%10)c9C#N)cc8c7=O)cc6)CC5)C4)C3)c21 (stereo partly drawn) [Example 246, (3R)-N-{2-cyano-3-[(3-{4-[4-({2-[1-(2,6-dioxopiperidin-3-yl)-3-methyl-2-oxo-2,3-dihydro-1H-1,3-benzodiazol-4-yl]-2-azaspiro[3.3]heptan-6-yl}methyl)piperazin-1-yl]phenyl}-4-oxo-3,4-dihydroquinazolin-6-yl)oxy]-4-fluorophenyl}-3-fluoropyrrolidine-1-sulfonamide] | 50 to 500 nM |  | 1 to 10 nM | 35 to 70% | 35 to 70%
4 | N#Cc1c(NS(=O)(=O)N2CC[C@@H](F)C2)ccc(F)c1Oc1ccc2ncn(-c3ccc(N4CCC5(CC4)CC(OC4CCN(c6ccc7c(c6)CN([C@H]6CCC(=O)NC6=O)C7=O)CC4)C5)cc3)c(=O)c2c1 [Example 250, (3R)—N-(2-cyano-3-{[3-(4-{2-[(1-{2-[(3S)-2,6-dioxopiperidin-3-yl]-1-oxo-2,3-dihydro-1H-isoindol-5-yl}piperidin-4-yl)oxy]-7-azaspiro[3.5]nonan-7-yl}phenyl)-4-oxo-3,4-dihydroquinazolin-6-yl]oxy}-4-fluorophenyl)-3-fluoropyrrolidine-1-sulfonamide] | 50 to 500 nM |  | 1 to 10 nM | 35 to 70% | 35 to 70%
5 | CC(C)(C1CCN(c2ncc(-n3cnc4ccc(Oc5c(F)ccc(NS(=O)(=O)N6CC[C@@H](F)C6)c5C#N)cc4c3=O)cn2)CC1)N1CCN(c2ccc3c(c2)C(=O)N(C2CCC(=O)NC2=O)C3=O)CC1 (stereo partly drawn) [Example 152, (3R)-N-{2-cyano-3-[(3-{2-[4-(2-{4-[2-(2,6-dioxopiperidin-3-yl)-1,3-dioxo-2,3-dihydro-1H-isoindol-5-yl]piperazin-1-yl}propan-2-yl)piperidin-1-yl]pyrimidin-5-yl}-4-oxo-3,4-dihydroquinazolin-6-yl)oxy]-4-fluorophenyl}-3-fluoropyrrolidine-1-sulfonamide] | 50 to 500 nM |  | 1 to 10 nM | 35 to 70% | ≤ 35%
6 | CN(c1ccc(-n2cnc3ccc(Oc4c(F)ccc(NS(=O)(=O)N5CC[C@@H](F)C5)c4C#N)cc3c2=O)cc1)[C@H]1CC[C@@H](N2CCN(c3ccc4c(c3)CN([C@H]3CCC(=O)NC3=O)C4=O)CC2)CC1 [Example 224, (3R)-N-(2-cyano-4-fluoro-3-{[3-(4-{methyl[(1r,4r)-4-(4-{2-[(3S)-2,6-dioxopiperidin-3-yl]-1-oxo-2,3-dihydro-1H-isoindol-5-yl}piperazin-1-yl)cyclohexyl]amino}phenyl)-4-oxo-3,4-dihydroquinazolin-6-yl]oxy}phenyl)-3-fluoropyrrolidine-1-sulfonamide] | 50 to 500 nM |  | 10 to 30 nM | ≤ 35% | 35 to 70%
7 | N#Cc1c(NS(=O)(=O)N2CC[C@@H](F)C2)ccc(F)c1Oc1ccc2ncn(-c3ccc(N4CCC(CN5CC6(C5)CN(c5ccc7c(c5)CN(C5CCC(=O)NC5=O)C7=O)C6)CC4)cc3)c(=O)c2c1 (stereo partly drawn) [Example 85, (3R)-N-{2-cyano-3-[(3-{4-[4-({6-[2-(2,6-dioxopiperidin-3-yl)-1-oxo-2,3-dihydro-1H-isoindol-5-yl]-2,6-diazaspiro[3.3]heptan-2-yl}methyl)piperidin-1-yl]phenyl}-4-oxo-3,4-dihydroquinazolin-6-yl)oxy]-4-fluorophenyl}-3-fluoropyrrolidine-1-sulfonamide] | 5 to 50 nM |  | 1 to 10 nM | 35 to 70% | 35 to 70%
8 | N#Cc1c(NS(=O)(=O)N2CC[C@@H](F)C2)ccc(F)c1Oc1ccc2ncn(-c3cccc(C4CCN(CC5CCN(c6ccc7c(c6)CN([C@H]6CCC(=O)NC6=O)C7=O)CC5)C4)c3)c(=O)c2c1 (single isomer, unassigned) [Example 259, (3R)-N-{2-cyano-3-[(3-{3-[(3R*)-1-[(1-{2-[(3S)-2,6-dioxopiperidin-3-yl]-1-oxo-2,3-dihydro-1H-isoindol-5-yl}piperidin-4-yl)methyl]pyrrolidin-3-yl]phenyl}-4-oxo-3,4-dihydroquinazolin-6-yl)oxy]-4-fluorophenyl}-3-fluoropyrrolidine-1-sulfonamide] | 50 to 500 nM |  | 1 to 10 nM |  | 

Second part, the molecule after the results:

Row | DC50 (B-RAF V600E) | B-RAF G466V DMax (%) (B-RAF G466V; Assay D) | DC50 (B-RAF G466V; Assay D) | Dmax (B-RAF V600E) | Dmax (B-RAF G466V) | Structure (SMILES)
9 | 50 to 500 nM |  | > 30 nM | 35 to 70% |  | N#Cc1c(NS(=O)(=O)N2CC[C@@H](F)C2)ccc(F)c1Oc1ccc2ncn(-c3ccc(N4CCC(CN5CC(c6ccc([C@H]7CCC(=O)NC7=O)cc6F)C5)CC4)cc3)c(=O)c2c1 [Example 183, (3R)-N-(2-cyano-3-{[3-(4-{4-[(3-{4-[(3R)-2,6-dioxopiperidin-3-yl]-2-fluorophenyl}azetidin-1-yl)methyl]piperidin-1-yl}phenyl)-4-oxo-3,4-dihydroquinazolin-6-yl]oxy}-4-fluorophenyl)-3-fluoropyrrolidine-1-sulfonamide]
10 | 50 to 500 nM |  | 1 to 10 nM | 35 to 70% | 35 to 70% | N#Cc1c(NS(=O)(=O)N2CC[C@@H](F)C2)ccc(F)c1Oc1ccc2ncn(-c3cccc(N4CCN(CC5CCN(c6ccc7c(c6)CN(C6CCC(=O)NC6=O)C7=O)CC5)CC4)c3)c(=O)c2c1 (stereo partly drawn) [Example 90, (3R)-N-{2-cyano-3-[(3-{3-[4-({1-[2-(2,6-dioxopiperidin-3-yl)-1-oxo-2,3-dihydro-1H-isoindol-5-yl]piperidin-4-yl}methyl)piperazin-1-yl]phenyl}-4-oxo-3,4-dihydroquinazolin-6-yl)oxy]-4-fluorophenyl}-3-fluoropyrrolidine-1-sulfonamide]
11 | 5 to 50 nM |  | 1 to 10 nM | 35 to 70% | ≤ 35% | N#Cc1c(NS(=O)(=O)N2CC[C@@H](F)C2)ccc(F)c1Oc1ccc2ncn(-c3cnc(C4(N5CCN(CC6CN(c7ccc(C8CCC(=O)NC8=O)cc7F)C6)CC5)CC4)nc3)c(=O)c2c1 (stereo partly drawn) [Example 105, (3R)-N-(2-cyano-3-{[3-(2-{1-[4-({1-[4-(2,6-dioxopiperidin-3-yl)-2-fluorophenyl]azetidin-3-yl}methyl)piperazin-1-yl]cyclopropyl}pyrimidin-5-yl)-4-oxo-3,4-dihydroquinazolin-6-yl]oxy}-4-fluorophenyl)-3-fluoropyrrolidine-1-sulfonamide]
12 | 5 to 50 nM |  | 1 to 10 nM | 35 to 70% | ≤ 35% | N#Cc1c(NS(=O)(=O)N2CC[C@@H](F)C2)ccc(F)c1Oc1ccc2ncn(-c3ccc(N4CCN(CC5CCN(c6ccc(C7CCC(=O)NC7=O)nc6)CC5)CC4)cc3)c(=O)c2c1 (stereo partly drawn) [Example 95, (3R)-N-{2-cyano-3-[(3-{4-[4-({1-[6-(2,6-dioxopiperidin-3-yl)pyridin-3-yl]piperidin-4-yl}methyl)piperazin-1-yl]phenyl}-4-oxo-3,4-dihydroquinazolin-6-yl)oxy]-4-fluorophenyl}-3-fluoropyrrolidine-1-sulfonamide]
13 | 5 to 50 nM |  | 1 to 10 nM | 35 to 70% | 35 to 70% | N#Cc1c(NS(=O)(=O)N2CC[C@@H](F)C2)ccc(F)c1Oc1ccc2ncn(-c3cnc(N4CCN(CCN5CCN(c6ccc(C7CCC(=O)NC7=O)cc6F)CC5)CC4)nc3)c(=O)c2c1 (stereo partly drawn) [Example 175, (3R)-N-{2-cyano-3-[(3-{2-[4-(2-{4-[4-(2,6-dioxopiperidin-3-yl)-2-fluorophenyl]piperazin-1-yl}ethyl)piperazin-1-yl]pyrimidin-5-yl}-4-oxo-3,4-dihydroquinazolin-6-yl)oxy]-4-fluorophenyl}-3-fluoropyrrolidine-1-sulfonamide]

From patent US11957759B1, “Rapidly accelerated fibrosarcoma (RAF) degrading compounds and associated methods of use” (Arvinas Operations, Inc., priority 2022, dated 2024)
